From US11434248B2, “PDE9 inhibitor and use thereof” (Nanjing TransThera Biosciences Co. Ltd., priority 2017, dated 2022)
Where two headings read alike, the source gives them in different places.

Columns and labels:
[1] = Stability in human liver microsome
[2] = Rat pharmacokinetic evaluation; format: in vivo, SD male rats; details: SD rat; for tz1/2 po (terminal elimination half-life): intragastric 5.0 mg/kg; for tz1/2 iv (terminal elimination half-life): intravenous bolus 1 mg/kg
Protocol: Experimental Example 4: Rat Pharmacokinetic Evaluation of the Compounds of the Invention
Aim: The in vivo pharmacokinetic parameters of the compounds in SD male rats (purchased from Beijing Vital River Animal Technology Co., Ltd.) were evaluated and bioavailability of the compounds was examined.
Animal Administration and Sample Collection:
The solution of compounds 65, 90, 107, 158 was intragastrically administered to SD rat at a dose of 5.0 mg/kg.
The experimental compound 76 was dissolved in 30% DMF+30% PEG400+40% saline to prepare a solution. The solution of compound 76 was intragastrically administered to SD rat at a dose of 5.0 mg/kg.
The experimental compound 76 was dissolved in 30% DMF+30% PEG400+40% saline to prepare a solution.
The experimental compounds 84 and 96 were dissolved in 5% DMSO+10% PEG400+85% (28% HP-β-CD) saline to prepare a solution. The solution of compounds 84 and 96 was intragastrically administered to SD rat at a dose of 5.0 mg/kg.
The experimental compounds 84 and 96 were dissolved in 5% DMSO+10% PEG400+85% (28% HP-β-CD) saline to prepare a solution.
The animals were fixed. The tail was heated with a water bath at 10 min before each time point. About 100 μL of blood from tail vein was collected, and then placed in an anti-coagulation tube containing EDTA-K2 after collection. Blood samples were centrifuged at 8000 rpm at 4° C. for 6 min to obtain plasma samples.
The concentration of test sample was output using Analyst 1.6.1 from AB SCIEX.

[3] = human
[4] = Canine pharmacokinetic evaluation; details: Beagle dogs, n = 3; for F %: dose iv/po 1/2 mg/kg; for AUCinf po / tz1/2 po (terminal elimination half-life): intragastric 2.0 mg/kg; for AUCinf iv / Cl_obs iv (clearance rate) / tz1/2 iv (terminal elimination half-life): intravenous bolus 1 mg/kg
[5] = target: human PDE9 (Homo sapiens (Human), UniProt O76083); details: background statement on conventional PDE inhibitors; cited from earlier work
[6] = human liver microsome 0.5 mg protein/mL, compound 1 μM, 37° C.

human PDE9, sequence (O76083 whole entry): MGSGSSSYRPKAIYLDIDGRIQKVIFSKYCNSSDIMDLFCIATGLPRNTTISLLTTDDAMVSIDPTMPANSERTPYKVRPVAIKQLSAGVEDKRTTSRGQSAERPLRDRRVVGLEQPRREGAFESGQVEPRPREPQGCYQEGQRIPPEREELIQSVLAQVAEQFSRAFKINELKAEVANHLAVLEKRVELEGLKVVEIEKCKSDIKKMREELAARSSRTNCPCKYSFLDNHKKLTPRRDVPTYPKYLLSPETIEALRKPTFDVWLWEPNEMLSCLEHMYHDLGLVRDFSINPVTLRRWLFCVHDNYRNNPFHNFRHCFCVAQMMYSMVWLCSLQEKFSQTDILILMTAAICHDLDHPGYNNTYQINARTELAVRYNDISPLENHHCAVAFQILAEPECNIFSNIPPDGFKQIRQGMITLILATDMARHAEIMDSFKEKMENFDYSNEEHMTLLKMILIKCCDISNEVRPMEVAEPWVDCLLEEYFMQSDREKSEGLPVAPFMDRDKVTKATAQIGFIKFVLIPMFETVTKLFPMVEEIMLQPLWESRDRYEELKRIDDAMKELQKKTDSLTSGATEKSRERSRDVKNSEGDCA

Q: With `N#Cc1c(N2CC[C@@H](n3cccn3)C2)c2ccncc2[nH]c1=O` [Compound 19, (R)-4-(3-(1H-pyrazol-1-yl)pyrrolidin-1-yl)-2-oxo-1,2-dihydro-1,7-naphthyridin-3-carbonitrile] as the compound, how does the k [1, 6] read?
A: Its k is 0.191 min⁻¹.

Q: Which “tz1/2 po (terminal elimination half-life)” value (“tz1/2 po” below) [2] does the source give for `N#Cc1c(N2CCC3(CC2)CC3)c2ccncc2[nH]c1=O` [Compound 25, 2-oxo-4-(6-azaspiro[2.5]octane-6-yl)-1,2-dihydro-1,7-naphthyridin-3-carbonitrile] here?
A: The value was 1.40 h.

Q: And the “tz1/2 iv (terminal elimination half-life)” value (from here on “tz1/2 iv”) [2]?
A: The value was 0.51 h.

Q: What about the k [3] of the same compound?
A: The k was 0.0022 min⁻¹.

Q: What about the F % [4] of the same compound?
A: The F % was 99.1%.

Q: And the AUCinf po [4]?
A: Its AUCinf po is 4.449 µg·h/mL.

Q: What about the “tz1/2 po” value [4] of the same compound?
A: Its value is 9.45 h.

Q: What about the AUCinf iv [4] of the same compound?
A: Its AUCinf iv is 2.244 µg·h/mL.

Q: And the “Cl_obs iv (clearance rate)” value [4]?
A: The value was 0.47 L/h/kg.

Q: What about the “tz1/2 iv” value [4] of the same compound?
A: Its value is 10.4 h.

Q: What does the source list for `N#Cc1c(N2CCC3(CC2)CC3)c2cc(C(O)CO)ncc2[nH]c1=O` (centres unmarked) [Compound 32, 6-(1,2-dihydroxyethyl)-2-oxo-4-(6-azaspiro[2.5]octane-6-yl)-1,2-dihydro-1,7-naphthyridin-3-carbonitrile]?
A: T½ [1, 6]: →∞; k [1, 6]: -0.3760 min⁻¹

Q: With `N#Cc1c(N2CCC3(CCC3)CC2)c2cc(N3CC(O)C3)ncc2[nH]c1=O` [Compound 51, 6-(3-hydroxyazetidin-1-yl)-2-oxo-4-(7-azaspiro[3.5]nonane-7-yl)-1,2-dihydro-1,7-naphthyridin-3-carbonitrile] as the compound, how does the k [3] read?
A: The k was 0.9418 min⁻¹.

Q: For `N#Cc1c(N2CCC3(CCC3)CC2)c2cc(N3CC(N)C3)ncc2[nH]c1=O` [Compound 53, 6-(3-aminoazetidin-1-yl)-2-oxo-4-(7-azaspiro[3.5]nonane-7-yl)-1,2-dihydro-1,7-naphthyridin-3-carbonitrile], which k [3] is on record?
A: Its k is 0.4821 min⁻¹.

Q: Which results are given for `Cc1cc2c(N3CCC4(CCC4)CC3)c(C#N)c(=O)[nH]c2cn1` [Compound 65, 6-methyl-2-oxo-4-(7-azaspiro[3.5]nonane-7-yl)-1,2-dihydro-1,7-naphthyridin-3-carbonitrile]?
A: tz1/2 po (terminal elimination half-life) [2]: 2.25 h; tz1/2 iv (terminal elimination half-life) [2]: 1.47 h; F % [4]: 25.5%; AUCinf po [4]: 0.543 µg·h/mL; tz1/2 po (terminal elimination half-life) [4]: 0.47 h; AUCinf iv [4]: 1.065 µg·h/mL; Cl_obs iv (clearance rate) [4]: 0.94 L/h/kg; tz1/2 iv (terminal elimination half-life) [4]: 0.49 h

Q: With `COc1cc2c(N3CCC4(CCC4)CC3)c(C#N)c(=O)[nH]c2cn1` [Compound 66, 6-methoxy-2-oxo-4-(7-azaspiro[3.5]nonane-7-yl)-1,2-dihydro-1,7-naphthyridin-3-carbonitrile] as the compound, how does the T½ [1, 6] read?
A: The T½ was “→^”.

Q: What about the k [1, 6] of the same compound?
A: Its k is -0.515 min⁻¹.

Q: With `CCc1cc2c(N3CCC4(CC3)CC4)c(C#N)c(=O)[nH]c2cn1` [Compound 76, 6-ethyl-2-oxo-4-(6-azaspiro[2.5]octane-6-yl)-1,2-dihydro-1,7-naphthyridin-3-carbonitrile] as the compound, how does the “tz1/2 po” value [2] read?
A: Its value is 9.60 h.

Q: And the “tz1/2 iv” value [2]?
A: The value was 0.89 h.

Q: And the k [3]?
A: Its k is 0.0015 min⁻¹.

Q: For `N#Cc1c(N2CCC3(CC2)CC3)c2ncccc2[nH]c1=O` [Compound 80, 2-oxo-4-(6-azaspiro[2.5]octane-6-yl)-1,2-dihydro-1,5-naphthyridin-3-carbonitrile], which k [3] is on record?
A: The k was 0.9877 min⁻¹.

Q: For `COC1(C)CCN(c2c(C#N)c(=O)[nH]c3cnccc23)CC1` [Compound 81, 4-(4-methoxy-4-methylpiperidin-1-yl)-2-oxo-1,2-dihydro-1,7-naphthyridin-3-carbonitrile], which k [1, 6] is on record?
A: The k was 0.0012 min⁻¹.

Q: For `CC(C)(O)c1cc2c(N3CCC4(CCC4)CC3)c(C#N)c(=O)[nH]c2cn1` [Compound 82, 6-(2-hydroxypropan-2-yl)-2-oxo-4-(7-azaspiro[3.5]nonane-7-yl)-1,2-dihydro-1,7-naphthyridin-3-carbonitrile], which k [3] is on record?
A: Its k is 0.9760 min⁻¹.

Q: For `N#Cc1c(N2CCC3(CC2)CC3)c2cc(C(=O)O)ncc2[nH]c1=O` [Compound 83, 3-cyano-2-oxo-4-(6-azaspiro[2.5]octane-6-yl)-1,2-dihydro-1,7-naphthyridin-6-carboxylic acid], which T½ [1, 6] is on record?
A: The T½ was “→∞”.

Q: And the k [1, 6]?
A: The k was 0.5421 min⁻¹.

Q: With `CC(C)(O)c1cc2c(N3CCC4(CC3)CC4)c(C#N)c(=O)[nH]c2cn1` [Compound 84, 6-(2-hydroxypropan-2-yl)-2-oxo-4-(6-azaspiro[2.5]octane-6-yl)-1,2-dihydro-1,7-naphthyridin-3-carbonitrile] as the compound, how does the “tz1/2 po” value [2] read?
A: Its value is 3.24 h.

Q: And the “tz1/2 iv” value [2]?
A: Its value is 1.89 h.

Q: With `N#Cc1c(N2CCC3(CC2)CC3)c2cc(C(O)C3CC3)ncc2[nH]c1=O` (centres unmarked) [Compound 90, 6-(cyclopropyl (hydroxy)methyl)-2-oxo-4-(6-azaspiro[2.5]octane-6-yl)-1,2-dihydro-1,7-naphthyridin-3-carbonitrile] as the compound, how does the “tz1/2 po” value [2] read?
A: The value was 4.49 h.

Q: What about the “tz1/2 iv” value [2] of the same compound?
A: The value was 1.48 h.

Q: And the k [3]?
A: The k was 0.0037 min⁻¹.

Q: With `CNC(=O)c1cc2c(N3CCC4(CC3)CC4)c(C#N)c(=O)[nH]c2cn1` [Compound 96, 3-cyano-N-methyl-2-oxo-4-(6-azaspiro[2.5]octane-6-yl)-1,2-dihydro-1,7-naphthyridin-6-formamide] as the compound, how does the “tz1/2 iv” value [2] read?
A: The value was 0.30 h⁻¹.

Q: For `CCc1cc2c(N3CCC(C)(OC)CC3)c(C#N)c(=O)[nH]c2cn1` [Compound 107, 6-ethyl-4-(4-methoxy-4-methylpiperidin-1-yl)-2-oxo-1,2-dihydro-1,7-naphthyridin-3-carbonitrile], which k [1, 6] is on record?
A: The k was 0.0023 min⁻¹.

Q: With `COC1(C)CCN(c2c(C#N)c(=O)[nH]c3cnc(C(C)(C)O)cc23)CC1` [Compound 109, 6-(2-hydroxypropan-2-yl)-4-(4-methoxy-4-methylpiperidin-1-yl)-2-oxo-1,2-dihydro-1,7-naphthyridine-3-carbonitrile] as the compound, how does the k [1, 6] read?
A: The k was 0.4444 min⁻¹.

Q: For `COCCOc1cc2c(N3CCC(C)(OC)CC3)c(C#N)c(=O)[nH]c2cn1` [Compound 145, 4-(4-methoxy-4-methylpiperidin-1-yl)-6-(2-methoxyethoxy)-2-oxo-1,2-dihydro-1,7-naphthyridin-3-carbonitrile], which k [1, 6] is on record?
A: Its k is 0.0019 min⁻¹.

Q: For `N#Cc1c(N2CCCCCC2)c2ccccc2[nH]c1=O` [Compound I-8, reference compound], which CLint [1, 6] is on record?
A: Its CLint is 0.1244 mL · min^−1 · mg^−1 proteins.

Q: And the k [1, 6]?
A: Its k is 0.727 min⁻¹.

Q: What about the “Original drug residual % at 60 min” value ([1]; human liver microsome 0.5 mg protein/mL, compound 1 μM, β-NADPH 1 mM, 37° C., 60 min) of the same compound?
A: Its value is 5.19%.

Q: And the half-life at 1 μM ([1]; human, liver microsomes)?
A: Its half-life at 1 μM is 0.186 h.

Q: For `CC(C)Cn1c(=O)n(C)c(=O)c2[nH]cnc21` [IBMX], which “inhibition activity on PDE9” value [5] is on record?
A: The value was “no or very low inhibition activity”.

Q: Which “inhibition activity on PDE9” value [5] does the source give for `CC(=O)Nc1ccc(-c2c[nH]c(=O)cn2)cc1` [SKF94120] here?
A: The value was “no or very low inhibition activity”.

Q: Which “inhibition activity on PDE9” value [5] does the source give for `OCCN(CCO)c1nc(N2CCCCC2)c2nc(N(CCO)CCO)nc(N3CCCCC3)c2n1` [dipyridamole] here?
A: The value was “no or very low inhibition activity”.

Q: For `COc1ccc(C2CNC(=O)C2)cc1OC1CCCC1` (centres unmarked) [rolipram], which “inhibition activity on PDE9” value [5] is on record?
A: Its value is “no or very low inhibition activity”.

Q: With `CCOC(=O)C1=C[C@]2(CC)CCCN3CCc4c(n1c1ccccc41)[C@@H]32` [vinpocetine] as the compound, how does the “inhibition activity on PDE9” value [5] read?
A: The value was “no or very low inhibition activity”.
